From patent publication US6734168B2, “Endothelial monocyte activating polypeptide II: a mediator which activates host response” (The Trustees of Columbia University in the City of New York, priority 1993, dated 2004)

Key:
human PMNs [1] = assay: Release of peroxidase generating activity (myeloperoxidase) from PMNs; type: cell-based; conditions: 60 min at 37° C.
Experimental: Release of peroxidase generating activity from PMNs (myeloperoxidase) was determined by oxidation of the peroxidase substrate 3,3′,5,5′-tetramethylbenzidine (TMB; Sigma), monitored at 620 nm, as described (35). In brief, PMNs (3×10^6 cells/ml; 0.05 ml) were incubated for 60 min at 37° C. with RPMI 1640 containing fetal calf serum (1%) alone or in the presence of phorbol ester (phorbol 12-myristate 13-acetate; Sigma) or EMAP II-derived peptides. TMP and hydrogen peroxide were added for 1 min at room temperature, and the reaction was stopped with sodium azide and acetic acid. Peroxidase activity, assessed by oxidation of TMB, was determined spectrophotometrically and is reported as percent total peroxidase activity (100% is the activity observed with that number of PMNs following 60 min exposure to phorbol ester, 10 μM). A standard curve was generated by assaying peroxidase activity from different numbers of PMNs treated with phorbol ester (10 μM) under these conditions, and peroxidase activity of PMN/EMAP II peptide incubation mixtures was determined by comparison with the linear portion of the standard curve (35).
Release of Peroxidase Generating Activity from PMNs (myeloperoxidase)—Release was determined by a previously described assay (36) which monitors oxidation of the substrate 3,3′,5,5′-tetramethylbenzidine (TMB; Sigma). […]

human MPs [2] = assay: [Ca2+]i measurement in MPs (fura-2); type: cell-based
Experimental: (§1) [Ca^2+1]i measurements. PMNs or MPs (2×10^7 cells in each case) were incubated with fura-2 AM (1 μM) and pluronic detergent (0.02%) for 12 min at room temperature, diluted sixfold, and incubated for a further 30 min at room temperature to allow for complete hydrolysis of the dye. Cells were then resuspended in HEPES-buffered saline at 5×10^5 cells/ml (32). For experiments using MPs, sulfinpyrazone (0.5 mM) was included at all steps to minimize both dye sequestration into intracellular organelles and dye efflux (33). Fluorescence of fura-2 was monitored at 37° C. in a thermostatically-controlled cuvette installed in a Perkin Elmer Model 650-40 fluorescense spectrophotometer. Calibration of [Ca^2+]i was performed as described (34).
For determination of [Ca^2+] in PMSs and MPs, cells (2×10^7 in each case) were incubated with fura-2 AM (1 um) and pluronci detergent (0.02%) at room temperature, diluted 6-fold, and incubated for a further 30 min at room temperature to allow for complete hydrolysis of the dye. Cells were then resuspended in HEPES-buffered saline at 5×10^5 cells/ml (32). For MPs, sulfinpyrazone (0.5 mM) was included at all steps to minimize both dye sequestration into intracellular organelles and dye efflux (33). Fluorescence of fura-2 was monitored at 37° C. in a thermostatically controlled cuvette installed in a Perkin Elmer model 650-40 fluorescence spectrophotometer. […]

human PMNs [3] = assay: [Ca2+]i measurement in PMNs (fura-2); type: cell-based
Experimental: as §1
For determination of [Ca^2+] in PMSs and MPs, cells (2×10^7 in each case) were incubated with fura-2 AM (1 um) and pluronci detergent (0.02%) at room temperature, diluted 6-fold, and incubated for a further 30 min at room temperature to allow for complete hydrolysis of the dye. Cells were then resuspended in HEPES-buffered saline at 5×10^5 cells/ml (32). For MPs, sulfinpyrazone (0.5 mM) was included at all steps to minimize both dye sequestration into intracellular organelles and dye efflux (33). Fluorescence of fura-2 was monitored at 37° C. in a thermostatically controlled cuvette installed in a Perkin Elmer model 650-40 fluorescence spectrophotometer. Calibration of [Ca^2+] was performed as described (34).

human MPs [4] = assay: Radioligand binding of 125I-[…] to MPs; conditions: excess / increasing concentrations of unlabelled competitor
Experimental: Radioligand binding studies were performed on human MPs plated in 96-well plates (5-6×10^4 cells/well). Cells were washed twice with Hanks balanced salt solution, and then Dulbecco's Modified Eagle Medium containing HEPES (25 mM; pH 7.4), penicillin/streptomycin (50 U/ml; 50 μg/ml), and bovine serum albumin-fatty acid free (0.5%; Sigma) were added (0.1 ml/well). Cultures were incubated at 4° C. for 2 hrs with ^125I-[…] alone or in the presence of unlabelled peptide/protein. Each well was washed four times over a period of 20 sec, and cell-associated radioactivity was eluted by an acidic buffer (HCl, 0.1 M, pH 2; NaCl, 0.1 M) at 4° C. for 5 min. During the elution period, there was no detachment of cells from the growth substrate. The conditions for incubation and washing used in the binding studies shown in FIG. 3 (2 hrs at 4° C.) were […] to allow binding of ^125I-[…] to reach an apparent maximum, even at the lowest tracer concentrations, and to remove unbound material by washing quickly so that <10% of the cell-bound radioactivity dissociated.

mouse footpad = assay: Injection of peptides and peptide-albumin conjugates into mouse footpads; type: in vivo; conditions: unconjugated peptide
Experimental: Preparation and implantation of peptide-albumin conjugates into mice. Peptide-albumin conjugates (made with either […], […] or […]) (SEQ ID NO. 16) were prepared using glutaraldehyde as described (39). In brief, mouse serum albumin (50 μg) was incubated with glutaraldehyde (450 μg) and the indicated peptide (200 μg) in NaCl (0.1 M) Tris (0.05 N; pH 7.3) for 10 min at room temperature. Excess lysine was added (final concentration, 0.5 M), and the albumin-peptide conjugates were dialyzed exhaustively versus phosphate-buffered saline. BALB/c mice (6-12 weeks) each received an injection into the footpad (7,40-41) of 0.05 ml of a solution of either (i) albumin-peptide conjugate (50 μg, total protein/footpad), (ii) albumin treated with glutaraldehyde in an identical fashion, except that no peptide was present (50 μg, total protein/footpad), (iii) native albumin (50 μg total protein/footpad), or (iv) buffer alone. At the indicated time, animals were sacrificed by humane euthanasia, footpads were harvested, fixed in buffered formalin (10%), decalcified, and embedded in paraffin. Sections were stained with hematoxylin and eosin.

Sequence: ASRLDLRIGRIVTAKY [residues #6-20 from EMAP II, Cys to Arg substitution at position #15, and a C-terminal Tyr]
- Release of PMN myeloperoxidase activity (peroxidase generation assay) (human PMNs [1]): released PMN myeloperoxidase activity
- Rise in [Ca2+]i in MPs (human MPs [2]): results in elevation of [Ca^2+]i
- Rise in [Ca2+]i in PMNs (human PMNs [3]): induced a rise in [Ca^2+]i
- Competition for binding of 125I-RIGRIVTAKY to MPs by unlabelled peptide/protein (human MPs [4]): inhibition
- Inflammatory response to free peptide injected subcutaneously into mice (mouse footpad): at most a transient inflammatory response
